The results in this text go back to patent EP0974573A1, “PHENYLPROPENONE COMPOUNDS AND MEDICINES CONTAINING THE SAME” (Kabushiki Kaisha Yakult Honsha, priority 1997, dated 1998).

For orientation: IC50 means the concentration needed to halve the response being measured.

The subject of one assay is SD rats. Nature of the assay: Plasma cholesterol elevation inhibitory effects on rats loaded with high cholesterol diet, feed-mixed administration (Test 3). The format is in vivo, rat. To be noted: 0.005% of compound added to hyperlipemia inducing diet, ad libitum 3 days. From the text:
Using 5-week old male SD rats (120-150 g, 10 rats per group, individual feeding), plasma cholesterol elevation inhibitory effects of various compounds in the Examples on rats were studied. To a control group, a feed which had been prepared by adding 1.5% of cholesterol, 0.5% of cholic acid, 10% of coconut oil and 10% of sugar to "F-2 Diet" (product of FUNABASHI FARM CO., LTD.) was given ad libitum as a hyperlipemia inducing diet.
To each test-compound-administered group, on the other hand, a feed which had been prepared by adding 0.005% of the corresponding compound in the Examples to the hyperlipemia inducing diet of the above-described composition was given ad libitum. Further, a normal diet group to which a feed similar to the hyperlipemia inducing diet except for the exclusion of cholesterol was also tested similarly. As a testing method, after these feeds were given ad libitum for 3 days, bloods were drawn on the 4th day from the abdominal aortas of the individual rats under anesthesia with Nembutal. Subsequent to collection of plasma from each blood sample, the plasma cholesterol was quantitated by a "DETERMINER TC555 KIT" (product of Kyowa Medex Co., Ltd.) while the HDL cholesterol was quantitated by "DETERMINER HDL KIT" (product of Kyowa Medex Co., Ltd.). The liver cholesterol was measured by extracting it in accordance with the Folch's method and then measuring it with a "DETERMINER TC555 KIT". Statistical processing of the data so obtained was conducted by the Danett's test.

The subject of another assay is rat-derived ACAT. Nature of the assay: Inhibitory effects on rat-derived ACAT (Test 1). The note with it: crude enzyme from microsome protein fractions of rat liver, (14C)-oleoyl-CoA substrate, 37°C. In kind it is biochemical. As to the method:
To test effects on ACAT, a reaction was conducted in vitro to form (^14C)-cholesteryl oleate from endogeneous cholesterol in the presence of (^14C)-oleoyl-CoA as a substrate by using a crude enzyme prepared from microzome protein fractions of a rat liver.
The reaction mixture had the following composition: 20 µℓ of microsome protein (1.83 mg/mℓ), 20 µℓ of (^14C)-oleoyl-CoA (5 µCi/mℓ, BSA: 96 nmol/mℓ), 106 µℓ of 100 mM phosphate buffer (containing 5 mM of dithiothreitol, pH 7.4) and a sample dissolved in 4 µℓ of methanol or dimethyl sulfoxide; 150 µℓ in total.
The reaction was conducted at 37°C. After an elapse of a predetermined reaction time (18 minutes in general), a 2:1 mixture of chloroform and methanol (5.65 mℓ) was added to terminate the reaction. A 0.04 N aquous solution of hydrochloric acid (0.98 mℓ) and as a carrier, cholesteryl oleate were added, followed by extraction for 20 minutes on a shaking apparatus. The mixture was then allowed to stand overnight in a cold dark place. On the following day, the separated lower chloroform layer was extracted in its entirety and was dried under a nitrogen gas stream. The remaining upper layer was added with the lower layer (5.65 mℓ) of the Folch's partition solution, and was extracted again. After the mixture was allowed to stand overnight in a dark place, the lower layer was drawn in its entirety. This lower layer was combined with the lower chloroform layer fraction, which had already been dried to solid, and the mixture was then dried to solid.
The solid was then dissolved in chlorofrom (200 µℓ), and the solution was coated in its entirety on a G60 plate (aluminum sheet) for silica gel thin layer chromatography. After the solid was developedover 10 cm with a 10:190 mixture of diethyl ether and petroleum ether, autoradiography was conducted and the formation of (^14C)-colesteryl oleate was confirmed. This section was then cut off. The radioactivity of each sample was measured by subjecting it to liquid scintillation counting for 5 minutes in toluene or was measured for 30 minutes by a "Betascope" (manufactured by BETA-GEN INC. The results so obtained are shown in Table 1. Table 1

Assay [1] has as its system J774.1 strain, an established cell line of mouse macrophage. Nature of the assay: Inhibitory effects on the accumulation of cholesterol esters in macrophage (Test 2). In kind it is cell-based. To be noted: J774.1 mouse macrophage, 12 hours incubation with cholesterol liposomes. As to the method:
Inhibitory effects on the accumulation of cholesterol esters in macrophage were tested using J774.1 strain, an established cell line of mouse macrophage.
Metabolism of LDL in endothelial cells or smooth muscle cells causes downregulation of the LDL receptor by excess free cholesterol in the cells, but in a macrophage, uptake of modified lDL takes place via a scavenger receptor. As no regulation is applied to this pathway, cholesterol esters progressively accumulate without any limitation.
It was therefore studied whether or not corydaline would inhibit intracellular accumulation of cholesterol esters by having liposomes, which were formed of […] cholesterol and phosphatidylcholine, uptaken in macrophage cells and then causing them to act on acyl-CoA:cholesterol acyltransferase which existed on rough-surfaced endoplasmic reticula.
The macrophage cells were incubated for 2 days under 5% CO2 on an RPMI 1640 medium (product of NISSUI PHARMACEUTICAL CO., LTD.) which had been added with 10% fetal bovine serum, penicilin (50 U/mℓ) and streptomycin (50 µg/mℓ). Trypsinization was then conducted, and cells attached to the bottom of each well were peeled off and formulated into a cell suspension. The cells were washed with a fresh supply of the above-described culture medium, and the cell solution was then seeded at 2 x 10^6 cells/mℓ on a 24-well multiple well plate ("25820-24", product of CORNING INC.). After incubation at 37°C under 5% CO2 for 37 hours, the culture medium was replaced with a fresh supply of the above-described culture medium and, after a 0.3 M glucose solution (40 µℓ) with cholesterol [80 µg; containing 0.4 µCi of (^3H)-cholesterol] and phosphatidylcholine (160 µg) contained therein and a methanol solution (10 µℓ)with a test sample dissolved therein were added, incubation was conducted for 12 hours. These procedures were carried out aseptically.
After completion of the incubation, cells attached to each bottom were washed 5 times with a serum-free RPMI 1640 medium by a graduated pipet, and isopropanol (1 mℓ) was added to extract intracellular cholesterol and formed cholesterol esters. The extract was coated in its entirety on a silica gel thin layer chromatography ("Art 5553", product of MERCK & Co., INC.) and subsequent to development with a 80:20:2 mixture of hexane, ethyl ether and formic acid, autoradiography was performed.
A section, which contained ^3H-labelled cholesterol esters and cholesterol, was cut off. Its radioactivity was measured by a liquid scintillation counter and compared with a control, whereby a cholesterol ester accumulation inhibition rate was determined.

A further assay concerns ACAT. As to the kind of experiment: Screening toward substances having ACAT activity inhibitory effects. The format is biochemical. The note with it: screening finding, no value given.

For the compound `CCCCCCCCCCCOc1c(OC)cc(/C=C/C(=O)NN2CCN(c3ccc(C)c(C)c3)CC2)cc1OC` [Compound 9, N-[4-(3,4-dimethylphenyl)-1,4-diazacyclohexyl]-(2E)-3-(3,5-dimethoxy-4-undecyloxyphenyl)-2-propenamide], in the assay on SD rats, the “Inhibitory rate (%) of plasma total cholesterol elevation in rat” value (shortened to “Inhibitory rate (%)”) is listed as 28%. Moreover, the midpoint of inhibition with rat-derived ACAT, the IC50, lay at 45 nM.
With `CCCCCCCCCCCCOc1c(OC)cc(/C=C/C(=O)NN2CCN(c3ccc(C)c(C)c3)CC2)cc1OC` [Compound 10, N-[4-(3,4-dimethylphenyl)-1,4-diazacyclohexyl]-(2E)-3-(3,5-dimethoxy-4-dodecyloxyphenyl)-2-propenamide], in the assay with SD rats, the “Inhibitory rate (%)” value is recorded as 33%. For the same compound, the half-inhibitory concentration (IC50) in the assay with rat-derived ACAT is 71 nM.
As for `COc1cc(/C=C/C(=O)N2CCN(c3ccc(C)cc3C)CC2)cc(OC)c1OCCOc1ccccc1` [Compound 24, N-[4-(2,4-dimethylphenyl)-1,4-diazacyclohexyl]-(2E)-3-[3,5-dimethoxy-4-(2-phenoxy)ethyloxy]-2-propenamide], the “Inhibitory rate (%)” value with SD rats was 20%. This compound returned an IC50 in assay [1] of 720 nM.
In the case of `CCCCCCCCCCOc1c(OC)cc(/C=C/C(=O)NCCOc2ccccc2)cc1OC` [Compound 52, N-(2-phenoxyethyl)-(2E)-3-(3,5-dimethoxy-4-decyloxyphenyl)-2-propenamide], the “Inhibitory rate (%)” value with SD rats is reported as 23%.
The same measure, in the same setting: for `CCCCCCCCCCOc1c(OC)cc(/C=C/C(=O)Nc2ccc(Oc3ccccc3)cc2)cc1OC` [Compound 55, N-(4-phenoxyphenyl)-(2E)-3-(3,5-dimethoxy-4-decyloxyphenyl)-2-propenamide] the value was 34%.
`COc1cc(/C=C/C(=O)Nc2ccc(F)cc2)cc(OC)c1OCc1ccccc1` [Compound 77, N-(4-fluorophenyl)-(2E)-3-(3,5-dimethoxy-4-benzyloxyphenyl)-2-propenamide]: the IC50 with rat-derived ACAT turned out to be 76 nM; in assay [1] (Mus musculus, J774.1, 12 h) it was 470 nM.
On to `COc1cc(/C=C/C(=O)Nc2ccc(Cl)cc2)cc(OC)c1OCc1ccccc1` [Compound 78, N-(4-chlorophenyl)-(2E)-3-(3,5-dimethoxy-4-benzyloxyphenyl)-2-propenamide], for which the IC50 turned out to be 35 nM in the assay with rat-derived ACAT and 170 nM in assay [1] (Mus musculus, J774.1, 12 h).
`COc1cc(/C=C/C(=O)Nc2ccc(C(F)(F)F)cc2)cc(OC)c1OCc1ccccc1` [Compound 82, N-(4-trifluoromethylphenyl)-(2E)-3-(3,5-dimethoxy-4-benzyloxyphenyl)-2-propenamide]: the IC50 is 42 nM in the assay with rat-derived ACAT and 30 nM in assay [1] (Mus musculus, J774.1, 12 h).
For the compound `COc1cc(/C=C/C(=O)Nc2cc(C(F)(F)F)cc(C(F)(F)F)c2)cc(OC)c1OCc1ccccc1` [Compound 83, N-(3,5-bistrifluoromethylphenyl)-(2E)-3-(3,5-dimethoxy-4-benzyloxyphenyl)-2-propenamide], the IC50 with rat-derived ACAT was 60 nM; in assay [1] (Mus musculus, J774.1, 12 h), 430 nM.
As to `COc1cc(/C=C/C(=O)CCCCc2ccccc2)ccc1O` [yakutinone B], the “ACAT activity inhibitory effects” value in the assay with ACAT is “exhibits ACAT activity inhibitory effects”.
